Experimental data taken from patent US20030092126A1, “Fragments of leptin (ob protein)” (SmithKline Beecham p.l.c., priority 1996, published 2003).

B1: m-Leptin: murine leptin (protein, UniProt P41160 22-167, looked up)
Leptin: VPIQKVQDDTKTLIKTIVTRINDISHTQSVSAKQRVTGLDFIPGLHPILSLSKMDQTLAVYQQVLTSLPSQNVLQIANDLENLRDLLHLLAFSKSCSLPQTSGLQKPESLDGVLEASLYSTEVVALSRLQGSLQDILQQLDVSPEC

System: SD rats
Test: Effect of leptin fragments given intracerebroventricularly on food intake and body weight in SD rats
Assay type: in vivo
Conditions: single icv injection, measured 24 h later, n = 8, * P < 0.05
Experimental: Effect of Leptin Fragments on Food Intake in SD Rats
Rats are pre-treated with Synulox (0.1 ml/100 g) approx 1 hour before anaesthesia, and then anaesthetised with Domitor (0.04 ml/100 g i.m.) and sublimase (0.9 ml/100 g i.p.) Each rat has a cannula implanted stereotaxically into the lateral brain ventricle under sterile conditions. Anaesthesia is then reversed using Antisedan and Nubain (50% v/v :50% v/v 0.02 m1/100 g) I.P. After surgery each rat receives 0.05 ml Zenecarp.
Experiment 1: Following surgery the body weight of each animal was monitored daily throughout the procedure.
In order to verify that the cannula was in the lateral ventricle, Angiotensin II (100 ng/5 μl ) was injected icv and water intake was monitored for 5 min after injection.
24 hour food intake was measured on day 5 and 6 after surgery. On day 6 the animals were divided according to their body weight into 3 groups (a,b and c, 8 rats per group) and then fasted overnight. On the day of experiment (day 7) rats were injected icv as follows::
group a-vehicle (PBS, phosphate buffer solution, 5 μl/rat);
group b-human leptin (11.5 μg/5 μl); and
group c-leptin tryptic digest (30 μg/5 μl).
A known quantity of food in excess of the daily requirement was supplied to the rats immediately after the icv injection procedure was completed. Food intake and body weight were then measured 24h later.
Experiment 2: A separate group of animals was prepared exactly as described above but on the day of experiment after overnight fast, groups of rats were injected as follows:
group a-vehicle (PBS 5 μl /rat);
group b-human leptin ([…]);
group c-murine leptin (10 μg/5 μl);
group d-ob 57-74, sequence VTGLDFIPGLHPILTLSK (3.33 μg/5 μl);
Again a pre-weight quantity of food, in excess of the daily requirement, was re-given following the injection; change in body weight and the quantity of food consumed were recorded 24h later.

[1] = Experiment 2, Table 2, overnight fast, h-leptin 8.75 μg/rat, m-leptin 10 μg/rat, fragment 57-74 3.33 μg/rat
[2] = Experiment 1, Table 1, overnight fast, h-leptin 11.5 μg/rat, tryptic digest 30 μg/rat

Row | Molecule | 24 h food intake [1] [g] | Bwt Change [1] | 24 h food intake [2] | Bwt Change [2]
1 | VTGLDFIPGLHPILTLSK [Leptin fragment 57-74, fragment of human ob protein, amino acid residues 57 to 74] | 33.6 ± 0.9 | 26.8 ± 1.2* g/24 h | – | –
2 | h-Leptin: human leptin (human ob protein) | 33.7 ± 1.6 | 24.5 ± 3.7 g/24 h | 30.62 ± 1.5* g | 22.88 ± 2.05* g/24 h
3 | B1 | 31.3 ± 1.7 | 23.7 ± 2.18* g/24 h | – | –
